# Data from patent publication US20180251431A1 (VERTEX PHARMACEUTICALS INCORPORATED, priority 2016, published 2018).
# pIC50: −log10 of the molar value.
# System: HEK293 cells
# Assay: HEK293 VLCFA-LPC IC50 determination (13C-labeled C26:0 LPC by UHPLC/MS)
# Type: cell-based, human
# Conditions: Homo sapiens, HEK293, 48 h, average of one or more replicates; 13C-labeled C26:0 LPC, 48 hours; read-out: Average HEK293 IC50
# Experimental: HEK293 cells were treated with compounds, such as those listed in Tables A-E of Example 1, using the representative manual protocols described below. The protocols below were also adapted to a semi-automated protocol using standard methods in the art.
# Cell Culture Growth Conditions:
# HEK293 cells were maintained in FreeStyle F17 media (Gibco # A13835) supplemented with PenStrep (1%, Gibco #15070-063), Glutamax (2%, Gibco #35050-061), and Pluronic (0.1%, Gibco #24040-032) (“supplemented media”). Suspension cultures were grown in disposable Erlenmeyer flasks at about 120 rpm, 37° C., 5% CO2, and 80% humidity. Cell densities were kept between about 0.5 and 3 million cells per mL, in about 50-200 mL per flask.
# Treatment of Cells with Compounds Provided Herein:
# The cells were treated with compounds using either a total of 900 uL cell media volume (high-volume assay) or a total of 200 uL cell media volume (low-volume assay). In the high volume assay, 450 μL of supplemented media plus 13C-acetate (1.0 mg/mL, Sigma Aldrich #282014) were added to 0.5 μL of a compound (such as those in Tables A-E) in DMSO in a polypropylene v-bottom plate (Costar #3363) in 1 of 3 dilution schemes. The contents of each well were mixed and transferred to a sterile polypropylene deep-well v-bottom plate (Costar #3960). 450 μL of cultured HEK293 cells in supplemented media at a density of 1.0 million cells/mL was added to each well. In the low volume assay, 100 μL of supplemented media plus 13C-acetate (1.0 mg/mL, Sigma Aldrich #282014) were added to either 0.1 μL or 1.0 uL of a compound (such as those in Tables A-E) in DMSO in a polypropylene v-bottom plate (Costar #3363) in 1 of 3 dilution schemes. 100 μL of cultured HEK293 cells in supplemented media at a density of 1.0 million cells/mL was added to each well. The high volume and low volume plates were sealed with either AirPore Tape Sheets (Qiagen #19571) or Duetz plate covers to control evaporation and placed into a shaking incubator at 225 rpm, 37° C., 5% CO2, and 80% humidity for 48 hours. For both the high and low volume assays the 3 dilution schemes used were as follows:
# Following incubation, treated cells were harvested by centrifugation at 1690×g for 10 minutes. In the high volume assay 200 uL treated cells were transferred to a polypropylene v-bottom plate (Costar #3363) prior to centrifugation. In the low volume assay the incubation plate was centrifuged directly, without a transfer step. The supernatant was then discarded and the analytes were extracted using 1 of 2 different extraction schemes. In the first scheme, the cell pellet was visibly broken up by mixing the cell pellet up and down in 100 μL of hexane/isopropanol (60:40) 20 times. The resulting mixture was transferred to a 0.45 μm Durapore membrane (Millipore #MSH VN4510) atop a polypropylene v-bottom plate (Costar #3363) and filtered by centrifugation at 1690×g for 5 minutes. 120 μL of n-butanol containing 10 nM C13:0 lysophosphatidylcholine was added to the filtrate as an injection control standard, then the entire volume was transferred to a new Durapore membrane/v-bottom plate. In the second scheme, the cell pellet was visibly broken up by mixing the cell pellet up and down in 180 μL of methanol containing 10 nM C13:0 lysophosphatidylcholine 20 times. The resulting mixture was transferred to a 0.45 μm Durapore membrane (Millipore #MSH VN4510) atop a polypropylene v-bottom plate and filtered by centrifugation at 1690×g for 5 minutes. In both schemes, the plates were then sealed with pierceable capmats (Micronic MP53017) and stored at −20 OC until analyzed.
# UHPLC/Mass Spectrometry Readout:
# The filtered organic extraction was analyzed with a 1290 Agilent Infinity Series UHPLC coupled to an ABI Sciex QTrap 6500 mass spectrometer. […]
row,Structure (SMILES),pIC50
1,"O=C(Nc1ccn(-c2ccccc2)n1)C1(c2ccccc2)CC1CO (stereo not drawn) [Compound 444, 2-(hydroxymethyl)-1-phenyl-N-(1-phenyl-1H-pyrazol-3-yl)cyclopropane-1-carboxamide]",6.59
2,"O=C(Nc1ccn(-c2ccc(Cl)cn2)n1)C1(c2ccccc2F)CC1 [Compound 398, N-(1-(5-chloropyridin-2-yl)-1H-pyrazol-3-yl)-1-(2-fluorophenyl)cyclopropane-1-carboxamide]",< 5.30
3,"Cc1ncc(C#N)c(-n2ccc(NC(=O)C3(c4ccccc4F)CC3)n2)n1 [Compound 344, N-[1-(5-cyano-2-methyl-pyrimidin-4-yl)pyrazol-3-yl]-1-(2-fluorophenyl)cyclopropanecarboxamide]",< 5.30

# Same assay, conditions: Homo sapiens, HEK293, HEK293 cells; average of one or more replicates; read-out: Average HEK293 IC50
row,Structure (SMILES),pIC50
1,"O=C(Nc1ccn(-c2cccc(Cl)c2)n1)C1(c2ccccc2)CC1 [Compound 129, N-[1-(3-chlorophenyl)pyrazol-3-yl]-1-phenyl-cyclopropanecarboxamide]",6.15
2,"O=C(Nc1ccn(-c2cnccn2)n1)C1(c2ccccc2F)CC1 [Compound 215, 1-(2-fluorophenyl)-N-(1-pyrazin-2-ylpyrazol-3-yl)cyclopropanecarboxamide]",6.21
3,"O=C(Cc1cnccn1)Nc1ccn(-c2ccccc2)n1 [Compound 219, N-(1-phenylpyrazol-3-yl)-2-pyrazin-2-yl-acetamide]",< 5.30
4,"O=C(Nc1ccn(-c2cccc(Cl)c2)n1)C1(c2ncccc2F)CC1 [Compound 418, N-(1-(3-chlorophenyl)-1H-pyrazol-3-yl)-1-(3-fluoropyridin-2-yl)cyclopropane-1-carboxamide]",7.00
5,"O=C(Nc1ccn(-c2ccnc(F)c2)n1)C1(c2ccc(Cl)cc2)CC1 [Compound 257, 1-(4-chlorophenyl)-N-[1-(2-fluoro-4-pyridyl)pyrazol-3-yl]cyclopropanecarboxamide]",6.47
6,"[2H]C([2H])([2H])Oc1cc(-n2ccc(NC(=O)C3(c4ccccc4F)CC3)n2)ccn1 [Compound 439, 1-(2-fluorophenyl)-N-[1-[2-(trideuteriomethoxy)-4-pyridyl]pyrazol-3-yl]cyclopropanecarboxamide]",7.10
7,"CCCC(C(=O)Nc1ccn(-c2ccnc(F)c2)n1)c1ccccc1 (stereo not drawn) [Compound 173, N-(1-(2-fluoropyridin-4-yl)-1H-pyrazol-3-yl)-2-phenylpentanamide]",7.14
8,"O=C(Cc1ccccc1F)Nc1ccn(-c2ccc(F)c(F)c2)n1 [Compound 191, N-[1-(3,4-difluorophenyl)pyrazol-3-yl]-2-(2-fluorophenyl)acetamide]",6.62
9,"Nc1cc(-n2ccc(NC(=O)C3(c4ccccc4F)CC3)n2)ccn1 [Compound 393, N-[1-(2-amino-4-pyridyl)pyrazol-3-yl]-1-(2-fluorophenyl)cyclopropanecarboxamide]",5.72
10,"O=C(Nc1ccn(-c2ccccc2)n1)C1(c2ccccn2)CC1 [Compound 225, N-(1-phenylpyrazol-3-yl)-1-(2-pyridyl)cyclopropanecarboxamide]",7.12
11,"O=C(Cc1ccccc1F)Nc1ccn(-c2cccc(C(F)(F)F)c2)n1 [Compound 158, 2-(2-fluorophenyl)-N-[1-[3-(trifluoromethyl)phenyl]pyrazol-3-yl]acetamide]",5.54
12,"CC1(C)CC1(C(=O)Nc1ccn(-c2cc(F)cc(F)c2)n1)c1ncccc1F (stereo not drawn) [Compound 516, N-[1-(3,5-difluorophenyl)pyrazol-3-yl]-1-(3-fluoro-2-pyridyl)-2,2-dimethyl-cyclopropanecarboxamide]",5.89
13,"O=C(Cc1ccc(F)cc1)Nc1ccn(-c2ccccc2)n1 [Compound 16, 2-(4-fluorophenyl)-N-(1-phenylpyrazol-3-yl)acetamide]",6.48
14,"O=C(Cc1ccccc1)Nc1ccn(-c2cncc(F)c2)n1 [Compound 205, N-[1-(5-fluoro-3-pyridyl)pyrazol-3-yl]-2-phenyl-acetamide]",6.14
15,"O=C(Cc1ccsc1)Nc1ccn(-c2ccnc(F)c2)n1 [Compound 293, N-[1-(2-fluoro-4-pyridyl)pyrazol-3-yl]-2-(3-thienyl)acetamide]",6.01
16,"O=C(Cc1ccccn1)Nc1ccn(-c2ccccc2)n1 [Compound 40, N-(1-phenylpyrazol-3-yl)-2-(2-pyridyl)acetamide]",5.82
17,"O=C(Nc1ccn(-c2ccnc(F)c2)n1)C(c1ccccc1)C1CC1 (stereo not drawn) [Compound 175, 2-cyclopropyl-N-[1-(2-fluoro-4-pyridyl)pyrazol-3-yl]-2-phenyl-acetamide]",6.28
18,"O=C(Cc1cc(F)cc(C(F)(F)F)c1)Nc1ccn(-c2ccccc2)n1 [Compound 72, 2-[3-fluoro-5-(trifluoromethyl)phenyl]-N-(1-phenylpyrazol-3-yl)acetamide]",< 5.30
19,"O=C(Nc1ccn(-c2ncccc2F)n1)C1(c2ccccc2F)CC1 [Compound 95, 1-(2-fluorophenyl)-N-[1-(3-fluoro-2-pyridyl)pyrazol-3-yl]cyclopropanecarboxamide]",6.41
20,"Cc1cc(-n2ccc(NC(=O)C3(c4ccccc4)CC3)n2)ccn1 [Compound 112, N-[1-(2-methyl-4-pyridyl)pyrazol-3-yl]-1-phenyl-cyclopropanecarboxamide]",6.04
21,"O=C(Nc1ccn(-c2ccc(Cl)nc2)n1)C1(c2ccccc2F)CC1 [Compound 107, N-[1-(6-chloro-3-pyridyl)pyrazol-3-yl]-1-(2-fluorophenyl)cyclopropanecarboxamide]",7.08
22,"[2H]c1nc(C)nc([2H])c1-n1ccc(NC(=O)C2(c3ccccc3F)CC2)n1 [Compound 258, N-[1-(4,6-dideuterio-2-methyl-pyrimidin-5-yl)pyrazol-3-yl]-1-(2-fluorophenyl)cyclopropanecarboxamide]",< 5.30
23,"O=C(Nc1ccn(-c2ccnc(F)c2)n1)C1(c2cccc(Cl)c2)CC1 [Compound 256, 1-(3-chlorophenyl)-N-[1-(2-fluoro-4-pyridyl)pyrazol-3-yl]cyclopropanecarboxamide]",6.52
24,"Cc1ccc(CC(=O)Nc2ccn(-c3ccccc3)n2)cc1 [Compound 42, N-(1-phenylpyrazol-3-yl)-2-(p-tolyl)acetamide]",6.15
25,"O=C(Nc1ccn(-c2ccccc2)n1)C1(c2ccccc2)CC(F)(F)C1 [Compound 177, 3,3-difluoro-1-phenyl-N-(1-phenylpyrazol-3-yl)cyclobutanecarboxamide]",6.10
26,"O=C(Nc1ccn(-c2ccnc(F)c2)n1)C1(c2c(F)cccc2F)CC1 [Compound 266, 1-(2,6-difluorophenyl)-N-[1-(2-fluoro-4-pyridyl)pyrazol-3-yl]cyclopropanecarboxamide]",7.77
27,"CC1(C)CC1(C(=O)Nc1ccn(-c2ccc(F)c(F)c2)n1)c1ncccc1F (stereo not drawn) [Compound 514, N-[1-(3,4-difluorophenyl)pyrazol-3-yl]-1-(3-fluoro-2-pyridyl)-2,2-dimethyl-cyclopropanecarboxamide]",5.74
28,"O=C(Nc1ccn(-c2ccnc(F)c2)n1)C(c1ccccc1)C1CCCC1 (stereo not drawn) [Compound 152, 2-cyclopentyl-N-[1-(2-fluoro-4-pyridyl)pyrazol-3-yl]-2-phenyl-acetamide]",5.77
29,"O=C(Cc1ccccc1)Nc1ccn(-c2ccc(C(F)(F)F)cc2)n1 [Compound 153, 2-phenyl-N-[1-[4-(trifluoromethyl)phenyl]pyrazol-3-yl]acetamide]",< 5.30
30,"O=C(Cc1ccon1)Nc1ccn(-c2ccccc2)n1 [Compound 306, 2-isoxazol-3-yl-N-(1-phenylpyrazol-3-yl)acetamide]",< 5.70
